Experimental data taken from ChEMBL document CHEMBL5726506, “Heterocyclic kinase inhibitors” (2017).

Assay: Inhibition Assay: Class I PI3-Ks can be either purchased (p110α/p85α, p110β/p85α, p110δ/p85α from Upstate, and p110γ from Sigma) or expressed as previously described (Knight et al., 2004). IC50 values are measured using either a standard TLC assay for lipid kinase activity (described below) or a high-throughput membrane capture assay. Kinase reactions are performed by preparing a reaction mixture containing kinase, inhibitor (2% DMSO final concentration), buffer (25 mM HEPES, pH 7.4, 10 mM MgCl2), and freshly sonicated phosphatidylinositol (100 μg/ml). Reactions are initiated by the addition of ATP containing 10 μCi of γ-32P-ATP to a final concentration 10 or 100 μM and allowed to proceed for 5 minutes at room temperature. For TLC analysis, reactions are then terminated by the addition of 105 l 1N HCl followed by 160 μl CHCl3:MeOH (1:1). The biphasic mixture is vortexed, briefly centrifuged, and the organic phase is transferred to a new tube using a gel loading pipette tip precoated with CHCl3. This extract is spotted on TLC plates and developed for 3-4 hours in a 65:35 solution of n-propanol:1M acetic acid. The TLC plates are then dried, exposed to a phosphorimager screen (Storm, Amersham), and quantitated. For each compound, kinase activity is measured at 10-12 inhibitor concentrations representing two-fold dilutions from the highest concentration tested (typically, 200 μM).

Row | Structure (SMILES) | IC50 [nM]
1 | CN1CCN(c2nc3ccccc3cc2Cn2nc(-c3cc(O)cc(F)c3)c3c(N)ncnc32)CC1 | > 1000
2 | Nc1nc2ccc(-c3nn(Cc4cc5ccccc5nc4-c4ccccc4C(F)(F)F)c4ncnc(N)c34)cc2[nH]1 | > 1000
